In PubChem BioAssay (NCI):
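In this assay, cells in 96-well plates receive the compound at five concentrations for 48 hours. Endpoints are linearly interpolated between the surrounding concentrations. GI50 is the concentration that inhibits growth by half. TGI marks complete inhibition of growth.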

Tests used:
Test in all cases: NCI-60 cell line screen, 48 h
ACHN renal = test system: ACHN renal
COLO 205 colon = test system: COLO 205 colon
HOP-62 NSCLC = test system: HOP-62 NSCLC
HS 578T breast = test system: HS 578T breast
MDA-MB-231 breast = test system: MDA-MB-231 breast
OVCAR-3 ovarian = test system: OVCAR-3 ovarian
PC-3 prostate = test system: PC-3 prostate
SN12C renal = test system: SN12C renal
SR leukemia = test system: SR leukemia
UACC-257 melanoma = test system: UACC-257 melanoma

Row | Compound | GI50 (ACHN renal) [µM] | TGI (ACHN renal) [µM] | GI50 (COLO 205 colon) [µM] | TGI (COLO 205 colon) [µM] | GI50 (HOP-62 NSCLC) [µM] | TGI (HOP-62 NSCLC) [µM] | GI50 (HS 578T breast) [µM] | TGI (HS 578T breast) [µM] | GI50 (MDA-MB-231 breast) [µM] | TGI (MDA-MB-231 breast) [µM] | GI50 (OVCAR-3 ovarian) [µM] | TGI (OVCAR-3 ovarian) [µM] | GI50 (PC-3 prostate) [µM] | TGI (PC-3 prostate) [µM] | GI50 (SN12C renal) [µM] | TGI (SN12C renal) [µM] | GI50 (SR leukemia) [µM] | TGI (SR leukemia) [µM] | TGI (UACC-257 melanoma) [µM] | GI50 (UACC-257 melanoma) [µM]
1 | Nc1c(C(=O)Nc2cccc(Br)c2)sc2nc3c(cc12)C(O)CCC3 (configuration not stated) | 0.848 | 31.1 | 0.41 | > 32 | 0.575 | 48.3 | 0.395 | 12.7 | 2.24 | > 85.7 | 0.32 | 3.08 | 0.349 | 24.4 | 0.636 | > 100 | 0.228 | > 46 | – | –
2 | O=C(c1ccccc1)C1C(C(=O)c2ccccc2)C(c2ccccc2)N(c2ccccc2)C1c1ccccc1 (configuration not stated) | – | > 100 | – | > 100 | – | > 100 | – | > 100 | – | > 100 | – | > 100 | – | > 100 | – | > 100 | – | > 100 | > 100 | –
3 | O=C(Nc1cc(-c2cccnc2)nc(NCCCN2CCOCC2)n1)c1cc(Br)cc(C(F)(F)F)c1 | 3.04 | 11.3 | 1.77 | 3.47 | 2.71 | 9.98 | 2.71 | 8.51 | 1.79 | 3.93 | 3.7 | 12.8 | 4.03 | 15.7 | 7.74 | 21.8 | 2.6 | 41.7 | 3.78 | 2.1
4 | CC[C@H](NC(=O)[C@H](CS(=O)(=O)CC1CC1)N[C@@H](c1ccc(F)cc1)C(F)(F)F)C(=O)C(=O)NC1CC1 | > 100 | > 100 | > 100 | > 100 | > 100 | > 100 | > 100 | > 100 | 93.1 | > 100 | > 100 | > 100 | > 100 | > 100 | > 100 | > 100 | 98.4 | > 100 | > 100 | > 100
5 | COc1c(N2CCN(Cn3c(O)c(N=NC(=O)c4ccncc4)c4cc(F)ccc43)C(C)C2)c(F)cc2c(=O)c(C(=O)O)cn(C3CC3)c12 (configuration not stated) | 12.5 | > 50 | > 50 | > 50 | 21.7 | > 50 | 0.294 | 13.8 | 8.31 | 27.7 | 10.5 | 23.8 | > 50 | > 50 | 42.8 | > 50 | 16.3 | > 50 | > 50 | > 50
6 | Cc1ncc([N+](=O)[O-])n1CCNC(=O)CCCCCn1ccnc1[N+](=O)[O-] | – | > 100 | – | > 100 | – | > 100 | – | > 100 | – | > 100 | – | > 100 | – | > 100 | – | > 100 | – | > 100 | > 100 | –
7 | Cc1cc(S(=O)(=O)Nc2nc3cc(Cl)ccc3o2)c(SCc2ccccc2)cc1Cl | 18.5 | 34.9 | 21.2 | 44.1 | 21.9 | 40 | 21 | 44.3 | 24.2 | 50.7 | 22 | 45.6 | 21.5 | 43.5 | 22 | 49.5 | 46 | > 100 | 38.4 | 18.4
8 | Cn1ncc(-c2ccc3c(=O)[nH]nc(CN)c3c2)c1-c1c(F)cc2ccccc2c1C#N | 4.07 | 16.5 | 4.8 | 18.3 | 6.31 | 20.3 | 8.18 | 28.7 | 8.53 | 23.4 | 6.53 | 19.5 | 8.21 | 23.6 | 7.53 | 20.8 | 1.1 | 13.1 | 20.8 | 7.28
9 | CC1(C)[C@@H](OC(N)=O)C=C[C@]2(C=O)[C@H]3CC[C@]4(C)[C@@H](c5ccc(=O)oc5)[C@@H](Cl)C[C@]4(O)C3=CC[C@@H]12 | < 0.0025 | 0.00649 | 0.00685 | 0.0178 | 0.00331 | 0.00699 | < 0.0025 | 0.0146 | 0.00899 | 0.0492 | 0.00329 | 0.00828 | 0.00517 | 0.0148 | 0.00293 | 0.0136 | 0.00566 | 0.0154 | 0.0141 | 0.00565
10 | OC(COc1cccc2ccccc12)CN1CCN(c2ccccc2Cl)CC1 (configuration not stated) | 13.9 | 27.5 | 11.9 | 25 | 13.7 | 27.3 | 15.8 | 58 | 10.8 | 25.5 | 13.9 | 27.6 | 7.88 | 23.2 | 12.5 | 25.4 | 13.5 | 40.4 | 31 | 16.5
11 | Cc1cc(O)c(C(c2ccncc2)c2c(O)cc(C)[nH]c2=O)c(=O)[nH]1 | – | > 100 | – | > 100 | – | > 100 | – | > 100 | – | > 100 | – | > 100 | – | > 100 | – | > 100 | – | > 100 | > 100 | –
12 | CCOC(=O)c1ccccc1-c1c2ccc(=[N+](C)C)cc-2oc2cc(N(C)C)ccc12 | 1.28 | 8.1 | 0.143 | 0.43 | 0.352 | 10.3 | 0.548 | 51.2 | 0.301 | 10.7 | 0.209 | 13.4 | 0.0778 | 12.8 | 0.171 | 4.31 | 0.298 | 27.4 | 7.58 | 0.198
13 | O=c1c2c3c(sc2n2c(-c4ccc(Br)cc4)nnc2n1Cc1ccccc1)CCCC3 | 8.74 | 21.1 | 8.24 | 22.8 | 3.97 | 17.6 | 11.9 | 36.6 | 3.39 | 16.6 | 6.24 | 20 | 2.97 | 16.6 | 8.01 | 23.4 | 4.76 | 23.6 | 11.9 | –
